Laboratory results as given in patent publication US10869850B2, “Nitrated-fatty acids modulation of type II diabetes” (University of Pittsburgh—Of the Commonwealth System of …, priority 2007, dated 2020).
Entries after “also recorded” stand apart in the source; their conditions may differ. Like-named read-outs stand apart in the source and are kept apart here.

Key:
[1] = analysis of mouse plasma after intravenous administration of nitro oleic acid; type: in vivo
Method: In contrast, the plasma levels for the β-oxidation products are highest at around 60 minutes.

WT mice [2] = assay: blood glucose levels in fed WT mice (FIG. 2); type: in vivo, mouse
Description: Similar results are observed in experiments involving ob/ob mice.

ob/ob mice [3] = assay: blood glucose levels in leptin-deficient diabetic ob/ob mice (FIG. 3); type: in vivo, mouse; details: for blood glucose levels: over the course of the study, FIG. 3
Description: In a related vein, the invention encompasses a method for gauging the therapeutic efficacy of the composition as described above. This method involves obtaining at least two blood samples from a subject at different times during treatment and measuring the level of blood glucose in each sample.

WT mice [4] = assay: insulin sensitivity in WT mice (FIG. 5); type: in vivo, mouse
ob/ob mice [5] = assay: insulin sensitivity in ob/ob mice (FIG. 6); type: in vivo, mouse
ob/ob mice [6] = details: mouse, in vivo
WT mice [7] = assay: body weight of WT mice (FIG. 4); details: course of the study (25 days)
ob/ob mice [8] = assay: body weight of ob/ob mice (FIG. 4); details: entire course of the study
[9] = following intravenous administration of nitro oleic acid

| shape of plasma level curve as a function of time [1, 9] | time of peak plasma concentration [1, 9] | Compound | physiological fate (metabolism in vivo) ([1]; intravenous administration) | effectiveness in maintaining blood glucose levels compared with Rosiglitazone (WT mice [2]; WT mice) | blood glucose level (WT mice [2]; fed WT mice) | blood glucose levels on day 21 versus beginning of the study (ob/ob mice [3]; day 21, FIG. 3) | blood glucose levels (ob/ob mice [3]) | blood glucose levels after administration of insulin (WT mice [4]) | insulin sensitivity (ob/ob mice [5]) | blood glucose levels after administration of insulin (ob/ob mice [5]; FIG. 6) | side-effects of weight gain and fluid retention (ob/ob mice [6]) | body weight (WT mice [7]) | body weight (ob/ob mice [8]) | body weight (ob/ob mice [6]) |
| --- | --- | --- | --- | --- | --- | --- | --- | --- | --- | --- | --- | --- | --- | --- |
| biphasic | around 5 minutes | 9- or 10-nitro octadecenoic acid [nitro oleic acid] | converted in-vivo, to its saturated analog, or can undergo β-oxidative cleavage | at least as effective as Rosiglitazone | maintains a steady blood glucose level | significantly lower on day 21 than at the beginning of the study | lower blood glucose levels; also recorded: effective in reducing blood glucose levels | initial drop in blood glucose levels followed by an elevation to normal levels | improves insulin sensitivity | substantial decrease in blood glucose levels | without the side-effects of weight gain and fluid retention |  |  |  |
|  |  | CN(CCOc1ccc(CC2SC(=O)NC2=O)cc1)c1ccccn1 (stereo not drawn) [Rosiglitazone] |  |  |  |  |  |  |  |  |  | do not change over the course of the study | steady increase in body weights |  |
|  |  | CCCCCCCC/C=C\CCCCCCCC(=O)O [oleic acid, (Z)-octadec-9-enoic acid, reference compound] |  |  |  |  | blood glucose levels increased over the course of the study |  |  |  |  |  |  | steady increase in body weights |
